Starred links: 1 amine or outer side, 2 acyl side, 3 side chain; linkers in the order of their positions; H or OH if unused. Positions of bridges follow the written chain, without caps; N, C: chain ends. Non-standard residues stand in square brackets, D forms with d. Residues, ends and D or L forms follow the SMILES beside them. Chains are numbered I, II in the order given. *: point of attachment. isoGln = NC(=O)[C@H](CCC(=O)[*:2])N[*:1]; εLys = N[C@@H](CCCCN[*:1])C(=O)[*:2]; Dab = NCC[C@H](N)C(=O)O; PhAc = O=C(Cc1ccccc1)*
How the values were obtained:
[1] = Safety and tolerability in healthy rats; format: in vivo, rat
Description: Rat models were used as a model to assess PK/PD of Compound 1.
Four adult male Sprague Dawley rats were catheterized via the carotid artery (for blood collection). […] Blood samples were collected at nominal times of 5, 10, 20, 40, 60, 90, 120, 180, 240, and 300 min after administration using an automated blood sampling system as described above. Plasma was prepared from whole blood using K2EDTA as anticoagulant. Subsequent bioanalysis of samples included compound extraction and plasma concentration determination using standard LC/MS methods.
The study was performed using six adult male Sprague Dawley rats, aged ~11 weeks. The pressure catheter was a polyurethane tubing that extended out of the device body and was inserted into the lower abdominal aorta. A postoperative injection of analgesia (flunixin, 5 mg per animal; Finadyne®, Schering-Plough) was given once immediately after implantation, and once at an interval of 24 h. The surgical wounds were disinfected with povidone iodine (Vétédine®, Vetoquinol SA) for 4 consecutive days. After surgery, the animals recovered for ~2 weeks before first study administration (day 0).
On the days of administration, animals were examined before and immediately after administration, and at least once after dosing (after the ≥4-h analysis time point) to detect any clinical signs or reaction to administration. A full clinical examination was performed weekly.

[2] = test system: CCl4-induced rat model of cirrhosis and ascites; assay: CCl4-induced cirrhosis and ascites rats, cohort 3 (single IV bolus), hemodynamics and serum aldosterone; format: in vivo; details: 100 μg/kg IV
Description: Animals: 90 male Wistar rats (Charles River Laboratories, Espana S.A) weighing 200-220 grams at the time of receipt were subjected to a cirrhosis induction program; high dose CCl4 was administered by inhalation twice weekly (Monday and Friday) and phenobarbital (0.3 g/L) was added to drinking water. In some instances, liver damage in this model is caused by hepatotoxic CCl4 metabolites produced in the liver. In some instances, phenobarbital induction of the microsomal enzyme oxidizing system exaggerates the intensity of the hepatic necrosis. […] Animals were allowed free access to food and water throughout the study.
The study consisted of 3 treatment cohorts, as detailed in Table 10. Animals developing and maintaining ascites for 2 weeks were randomly assigned to treatment groups. Ringer Braun saline solution was used as vehicle. IV bolus were administered via femoral veins.
Cohort 3: Animals were anesthetized and the left femoral artery and vein catheterized. The femoral artery catheter was connected to a transducer for mean arterial pressure (MAP) measurements. The right jugular vein was isolated and a catheter placed in the right atrium; a thermocouple was advanced through the aortic arch via left carotid approach to monitor the intraarterial temperature and cardiac output (CO). MAP and CO were measured and recorded in a multichannel system (Powerlab). CO was measured by thermodilution following the administration of a 200 μL/animal bolus of Ringer solution (20-23° C.) into the right atrium using a spring-loaded Hamilton syringe. A midline abdominal incision (2 cm) was created and the portal vein cannulated through the ileocolic vein to measure portal pressure (PP). Constant infusion (2 mL/hr) of Ringer solution was given through the femoral vein. After 30 minutes of infusion, baseline 30 minute values for PP, MAP, CO, and systemic vascular resistance (SVR) were recorded. In the middle of the 30 minute data collection, a blood sample (0.8 mL) was obtained via the femoral artery catheter for serum aldosterone measurements. […] Five 30 minute data collections were recorded for PP, MAP, CO, and SVR over 150 minutes, with blood samples collected in the middle of each 30 minute data collection. Following blood sampling, packed cells were reconstituted with Ringer solution and reinjected over a period of 3 minutes.

rV1b receptor = molecular target: T1, rV1b receptor (Rattus norvegicus, UniProt P48974); assay: Luciferase reporter gene assay, rat V1b; details: read-out: % MPE
T1 sequence (P48974 1-425): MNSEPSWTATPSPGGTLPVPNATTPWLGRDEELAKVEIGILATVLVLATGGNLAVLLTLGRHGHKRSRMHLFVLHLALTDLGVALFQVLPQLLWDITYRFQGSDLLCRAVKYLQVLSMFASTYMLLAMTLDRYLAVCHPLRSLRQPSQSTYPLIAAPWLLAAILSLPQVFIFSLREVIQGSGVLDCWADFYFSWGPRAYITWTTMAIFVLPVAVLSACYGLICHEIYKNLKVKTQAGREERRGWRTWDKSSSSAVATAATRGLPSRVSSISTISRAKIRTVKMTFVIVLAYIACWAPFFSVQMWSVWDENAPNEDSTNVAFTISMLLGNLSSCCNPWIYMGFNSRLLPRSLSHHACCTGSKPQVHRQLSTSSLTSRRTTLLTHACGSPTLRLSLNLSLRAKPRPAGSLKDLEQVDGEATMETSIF
Description: Cell Lines. Studies were conducted with cell lines expressing rat (r) or human (h) Via, V1b, V2, or OT receptors. For the experiments with human receptors, human embryonic kidney (HEK)-flp-in cells stably expressing the lacZ-Zeocin™ fusion gene were used for expression of hV1a and hV1b. These cells were designed for use with the Flp-In™ expression vector containing the gene of interest (here hV1a or hV1b) and the Flp recombinase expression plasmid, pOG44. For hV2 and hOTR, HEK-293 cells transiently expressing hV2 were used.
Cell Maintenance. […]
Functional Cell-Based Assays. To detect activity generated by binding of the test compounds to endogenous rV1a receptors or the stably expressed hV1a receptors, Fluorometric Imaging Plate Reader (FL1PR) calcium assays were performed. Briefly, real-time fluorescence of an intracellular calcium-sensitive dye was measured immediately upon addition of the test compound at various concentrations. […] Expression of the luciferase gene was determined after 5-h incubation with various concentrations of test compound. […] For V1a receptor response, area under the curve of the real-time calcium traces, expressed as relative fluorescence units, was determined. […]

CC[C@H](C)[C@@H]1NC(=O)[C@H](Cc2ccccc2)NC(=O)[C@@H](N)CSSC[C@@H](C(=O)N2CCC[C@H]2C(=O)N[C@@H](CCNC(=O)[C@@H](N)CCCCNC(=O)[C@H](CCCCNC(C)=O)NC(=O)CC[C@H](NC(=O)[C@H](CCCNC(=N)N)NC(=O)[C@@H]2CCCN2C(=O)[C@H](C)NC(=O)[C@H](CC(N)=O)NC(=O)[C@H](CCC(N)=O)NC(=O)[C@H](Cc2ccccc2)NC(=O)[C@@H](Cc2ccc(OC)cc2)NC(=O)Cc2ccccc2)C(N)=O)C(=O)NCC(N)=O)NC(=O)[C@H](CC(N)=O)NC(=O)[C@H](CCC(N)=O)NC1=O [Compound 1, Glycinamide, L-cysteinyl-L-phenylalanyl-L-isoleucyl-L-glutaminyl-L-asparaginyl-L-cysteinyl-L-prolyl-N4-(phenylacetyl-O-methyl-D-tyrosyl-L-phenylalanyl-L-glutaminyl-L-asparaginyl-L-alanyl-L-prolyl-L-arginyl-L-isoglutamyl-N5-acetyl-L-lysyl-L-ε-lysyl)-L-2,4-diaminobutyryl-, cyclic (1→6)-disulfide] (I: H-CFIQNCP[Dab]G-NH2 / II: PhAc-[dY](Me)FQNAPR[isoGln]K(Ac)[εLys]; disulfide I:1-I:6; amide I:8-II:C)
animals with local reaction at injection site ([1]; SC 4 and 20 mg/kg): three of the six | tolerability ([1]; SC bolus): well tolerated | bodyweight gain ([1]; SC, four administrations up to 20 mg/kg): did not influence bodyweight gain | deaths ([1]; SC, up to 20 mg/kg): no deaths occurred | tolerability ([1]; single SC, conscious rats, all tested dose levels): well tolerated at all tested dose levels | tolerability ([1]; single-dose IV bolus (cassette)): well tolerated | Cardiac output - portal pressure ([2]; 0 min): 173 mL/min | Mean Arterial Pressure ([2]; 0 min): 79 mmHg | Systemic Vascular Resistance ([2]; 0 min): 0.49 mmHg * min/mL | Cardiac output - portal pressure ([2]; 30 min): 178 mL/min | Mean Arterial Pressure ([2]; 30 min): 84 mmHg | Portal Pressure ([2]; 30 min): 13.9 mmHg | Systemic Vascular Resistance ([2]; 30 min): 0.54 mmHg * min/mL | Cardiac output - portal pressure ([2]; 60 min): 177 mL/min | Mean Arterial Pressure ([2]; 60 min): 91 mmHg | Portal Pressure ([2]; 60 min): 12.8 mmHg | Systemic Vascular Resistance ([2]; 60 min): 0.54 mmHg * min/mL | Cardiac output - portal pressure ([2]; 90 min): 158 mL/min | Mean Arterial Pressure ([2]; 90 min): 98 mmHg | Portal Pressure ([2]; 90 min): 11.5 mmHg | Systemic Vascular Resistance ([2]; 90 min): 0.71 mmHg * min/mL | Cardiac output - portal pressure ([2]; 120 min): 140 mL/min | Mean Arterial Pressure ([2]; 120 min): 93 mmHg | Portal Pressure ([2]; 120 min): 10.6 mmHg | Systemic Vascular Resistance ([2]; 120 min): 0.72 mmHg * min/mL | Cardiac output - portal pressure ([2]; 150 min): 139 mL/min | Mean Arterial Pressure ([2]; 150 min): 92 mmHg | Portal Pressure ([2]; 150 min): 9.7 mmHg | Systemic Vascular Resistance ([2]; 150 min): 0.74 mmHg * min/mL | reduction in serum aldosterone ([2]; end of study): greater than 50% | Serum Aldosterone ([2]; end of study (vehicle 786)): 264 ng/dL | Emax (rV1b receptor): 97%

From patent US20260315609A1, “MIXED VASOPRESSIN RECEPTOR AGONIST-ANTAGONIST FOR TREATING END-STAGE LIVER DISEASE AND COMPLICATIONS ASSOCIATED THEREOF” (FERRING B.V., priority 2022, published 2026)
